The source made the active and inactive calls. Cut-off read from the data, not from the text of the source, for most assays here: actives have a measured EC50 and inactives only a lower limit.
Columns and labels:
[1] = NIH-3T3 fibroblast cytotoxicity, dose response, cytotoxicity control, cell-based, fluorescence, Alamar Blue, secondary assay (AID 2327); format: functional;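 note: NIH-3T3 mouse fibroblasts cultured with fluconazole at 8 µg/mL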
[2] = fluconazole-exposed Candida albicans growth modulators – fluorescence, retest, confirmation (AID 2467); format: functional, cell-based
[3] = Trypanosoma cruzi growth suppression in host cells – NIH3T3 host cells, beta-gal luminescence, confirmation (AID 2044); format: functional, cell-based;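 note: intracellular parasites grown in NIH/3T3 mouse fibroblasts as host cells; luminescent beta-galactosidase reporter signal from transgenic T. cruzi replicating inside host cells; inhibitors lower the luminescence signal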
[4] = NIH3T3 cell viability loss – ATP luminescence, mouse fibroblasts, counter-screen, dose response (AID 2010); format: functional, cell-based;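 note: cells exposed to compound for about 90 hours before reading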
[5] = molecular target: T1, Microphthalmia-associated transcription factor (Homo sapiens, UniProt O75030); test: reducers of TRPM1 reporter luminescence, concentration series – cell-based, SK-MEL-5, cherry-picked, set 3, MITF inhibitor project, dose response (AID 493073); format: functional;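 note: SK-MEL-5 melanoma cells with luciferase driven by the MITF target TRPM1 promoter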
T1 sequence (O75030 whole entry): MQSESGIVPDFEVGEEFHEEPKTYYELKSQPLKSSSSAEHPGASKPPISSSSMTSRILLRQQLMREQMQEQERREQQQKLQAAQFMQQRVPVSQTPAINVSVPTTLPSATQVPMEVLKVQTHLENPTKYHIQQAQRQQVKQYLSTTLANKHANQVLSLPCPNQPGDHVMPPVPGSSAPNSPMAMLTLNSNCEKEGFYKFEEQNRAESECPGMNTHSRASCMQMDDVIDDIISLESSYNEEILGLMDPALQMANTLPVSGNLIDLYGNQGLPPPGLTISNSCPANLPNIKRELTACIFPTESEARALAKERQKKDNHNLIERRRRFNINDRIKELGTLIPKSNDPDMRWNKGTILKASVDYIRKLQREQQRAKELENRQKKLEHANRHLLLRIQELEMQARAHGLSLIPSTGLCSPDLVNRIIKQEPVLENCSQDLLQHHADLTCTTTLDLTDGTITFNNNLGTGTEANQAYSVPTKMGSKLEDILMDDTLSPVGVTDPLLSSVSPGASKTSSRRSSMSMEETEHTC

[6] = molecular target: T2, Replicative DNA helicase DnaB (Mycobacterium tuberculosis, UniProt P9WMR3); test: DnaB intein splicing inhibitors, dose response, biochemical, cell-free fluorescence (AID 449749); format: functional
T2 sequence (P9WMR3 whole entry): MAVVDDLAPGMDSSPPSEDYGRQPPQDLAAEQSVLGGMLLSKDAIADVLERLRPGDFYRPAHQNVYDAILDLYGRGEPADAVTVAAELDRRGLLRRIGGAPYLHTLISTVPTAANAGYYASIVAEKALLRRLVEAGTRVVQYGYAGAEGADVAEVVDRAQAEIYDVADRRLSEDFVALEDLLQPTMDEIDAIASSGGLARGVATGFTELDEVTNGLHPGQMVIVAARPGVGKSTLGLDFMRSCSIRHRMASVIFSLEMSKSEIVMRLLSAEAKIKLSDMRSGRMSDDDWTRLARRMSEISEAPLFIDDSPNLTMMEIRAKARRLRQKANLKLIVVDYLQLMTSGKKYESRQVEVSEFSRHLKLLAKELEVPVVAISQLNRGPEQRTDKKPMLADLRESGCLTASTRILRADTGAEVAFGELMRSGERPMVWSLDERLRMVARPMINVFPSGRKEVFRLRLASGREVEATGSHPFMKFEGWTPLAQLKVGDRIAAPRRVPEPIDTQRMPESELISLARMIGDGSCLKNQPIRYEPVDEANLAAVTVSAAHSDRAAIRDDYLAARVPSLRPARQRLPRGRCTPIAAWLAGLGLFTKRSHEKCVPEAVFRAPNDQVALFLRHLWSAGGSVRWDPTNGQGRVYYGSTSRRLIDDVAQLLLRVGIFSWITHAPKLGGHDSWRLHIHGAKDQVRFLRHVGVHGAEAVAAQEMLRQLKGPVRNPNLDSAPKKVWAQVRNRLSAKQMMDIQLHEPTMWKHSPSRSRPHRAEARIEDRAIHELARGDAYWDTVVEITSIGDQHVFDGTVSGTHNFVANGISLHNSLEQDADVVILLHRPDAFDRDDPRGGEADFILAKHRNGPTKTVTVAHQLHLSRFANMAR

[7] = molecular target: T3, Protein RecA (Mycobacterium tuberculosis, UniProt P9WHJ3); test: Fluorescence Cell-Free Homogeneous Dose Retest to Identify Inhibitors of RecA-Intein Splicing Activity. [Related pubchem assays (depositor defined):AID2097, AID2223, AID489010, AID492950]; format: functional
T3 sequence (P9WHJ3 whole entry): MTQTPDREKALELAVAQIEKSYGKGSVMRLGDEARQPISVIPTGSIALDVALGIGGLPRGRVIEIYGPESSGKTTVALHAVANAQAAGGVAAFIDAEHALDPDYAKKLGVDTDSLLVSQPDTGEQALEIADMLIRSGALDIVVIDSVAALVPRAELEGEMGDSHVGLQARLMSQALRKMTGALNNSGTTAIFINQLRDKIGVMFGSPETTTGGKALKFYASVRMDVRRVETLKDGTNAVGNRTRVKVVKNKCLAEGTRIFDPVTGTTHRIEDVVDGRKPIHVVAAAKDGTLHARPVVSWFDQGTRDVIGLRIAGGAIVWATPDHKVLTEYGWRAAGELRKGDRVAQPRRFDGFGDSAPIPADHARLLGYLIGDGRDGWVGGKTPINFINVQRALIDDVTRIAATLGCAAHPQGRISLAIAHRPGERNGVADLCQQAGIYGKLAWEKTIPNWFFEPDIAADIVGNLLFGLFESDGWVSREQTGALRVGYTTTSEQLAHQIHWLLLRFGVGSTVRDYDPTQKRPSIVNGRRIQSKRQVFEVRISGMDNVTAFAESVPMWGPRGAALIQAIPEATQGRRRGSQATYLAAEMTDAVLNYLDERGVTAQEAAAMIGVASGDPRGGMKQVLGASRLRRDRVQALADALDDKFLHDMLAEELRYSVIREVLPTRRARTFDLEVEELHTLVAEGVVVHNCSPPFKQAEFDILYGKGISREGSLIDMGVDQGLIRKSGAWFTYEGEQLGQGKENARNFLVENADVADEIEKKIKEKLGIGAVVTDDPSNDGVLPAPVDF

[8] = test system: A-375; test: proliferation inhibition in MITF-low A375 cells – cell-based, cherry-pick samples, set 2, counter-screen for MITF modulator project, dose response (AID 540335); format: functional; settings: Homo sapiens
[9] = test system: HEK293; test: cells; settings: Homo sapiens
[10] = test system: HEK293; test: cells; settings: Homo sapiens; remark: listed apart in the source
[11] = luciferase reporter signal suppression in cells – H4 neuroglioma cells, luminescence, dose response (AID 1990); format: functional, cell-based
[12] = test system: BJ; test: BJ-TERT fibroblast viability loss – cell-based, RAS-independent, luminescence, dose response (AID 1933); format: functional; settings: Homo sapiens
[13] = Luminescence Cell-Based Dose Response HTS to Identify Inhibitors of 5'UTR Stem-Loop Driven Prion Protein mRNA Translation in H4 Neuroglioblastoma Cells. [Related pubchem assays: 1827 (Project Summary), 1813 (Primary HTS)]; format: functional
[14] = alpha-synuclein stem-loop luciferase translation blockers – H4 neuroglioma cells, luminescence, confirmation (AID 1988); format: functional, cell-based
[15] = test system: BJ; test: cells; format: functional, cell-based; settings: Homo sapiens
[16] = test system: BJ; test: BJ-TERT-LT-ST fibroblast viability loss – cell-based, RAS-independent, luminescence, dose response (AID 1935); format: functional; settings: Homo sapiens;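 note: BJ fibroblasts immortalized with TERT plus LT and ST oncogenes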
[17] = DRD fibroblast viability loss – cell-based, non-viral oncogenic, luminescence, dose response (AID 1934); format: functional; settings: Homo sapiens
[18] = HEK-293T viability loss after treatment – luminescence, T-cell screen hits, cytotoxicity control for TCR NF-kB inhibitor project, dose response (AID 489026); format: functional, cell-based;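 note: cells exposed to compound about 14 hours before the viability readout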
[19] = test system: BJ; test: growth inhibition of engineered Ras-driven BJ cells – cell-based, alamar blue fluorescence, cherrypicked samples, dose response (AID 2631); format: functional; settings: Homo sapiens;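 note: confirmatory dose-response assay in RAS-dependent BJ fibroblasts engineered with TERT, LT and ST, with cytotoxicity read by fluorescence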
[20] = blockers of HIV-1 envelope-mediated cell-cell fusion – cherry-pick, dose response (AID 652057); format: functional, cell-based
[21] = blockers of HIV-1 ZM109 envelope-driven cell-cell fusion – HeLa effector, CEM target cells, luciferase, cherry-pick, dose response (AID 652058); format: functional, cell-based;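 note: luciferase signal from HIV-1 Env mediated cell-cell fusion of effector and target cells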
[22] = off-target signal loss in HeLa-CEM21 co-culture – HeLa F-luc CTL cells, cherry-picked, counter-screen for HIV-1 Env fusion inhibitor project, dose response (AID 652040); format: functional, cell-based;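 note: potency for signal decrease marking cytotoxic or nonspecific inhibition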
[23] = HIV-1 AD8 envelope cell-cell fusion blockers – cherry-pick, dose response (AID 652062); format: functional, cell-based;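 note: luciferase signal from cell-cell fusion driven by HIV-1 clade B AD8 Env; potency is for inhibitors of fusion seen as a drop in luminescence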

Q: For `O=C(CCl)N1c2ccccc2CCc2ccccc21`, which EC50 [1] is on record?
A: 5.37 µM (inconclusive)

Q: What about the EC50 [2] of the same compound?
A: 2.36 µM (active)

Q: What about the EC50 [3] of the same compound?
A: 2.09 µM (active)

Q: What about the EC50 [4] of the same compound?
A: 4.26 µM (active)

Q: What about the AC50 [5] of the same compound?
A: 5.54 µM (active)

Q: And the AC50 [6]?
A: 7.5 µM (active)

Q: And the EC50 [7]?
A: 0.45 µM (active)

Q: What about the AC50 [8] of the same compound?
A: 42.7 µM (active)

Q: Which results are given for `Cc1ccc(S(=O)(=O)Cn2nnnc2C(C(C)C)N2CCc3ccccc3C2)cc1` (stereo not given)?
A: EC50 [9]: > 59.6 µM (inactive); EC50 [10]: > 59.6 µM (inactive)

Q: Which EC50 [11] does the source give for `CC1=CC(C)(C)N(S(=O)(=O)c2ccc(C)cc2)c2cc(C)ccc21` here?
A: 4.98 µM (inconclusive)

Q: What about the EC50 [12] of the same compound?
A: 1.34 µM (active)

Q: And the EC50 [13]?
A: 9.84 µM (active)

Q: And the EC50 [14]?
A: 4.44 µM (inconclusive)

Q: And the EC50 [15]?
A: 2.65 µM (active)

Q: What about the EC50 [16] of the same compound?
A: 1.3 µM (inconclusive)

Q: And the EC50 [17]?
A: 1.95 µM (active)

Q: What about the IC50 [18] of the same compound?
A: > 80 µM (inactive)

Q: And the EC50 [19]?
A: 0.353 µM (active)

Q: What does the source list for `C[C@@]12C(=O)N(CCc3c[nH]c4ccccc34)CC(=O)N1[C@H]1c3ccccc3OC[C@@H]1[C@@H]2c1ccccc1`?
A: AC50 [20]: 2.67 µM (active); AC50 [21]: 2.7 µM (active); AC50 [22]: 3.73 µM (active); AC50 [23]: 4.46 µM (active); EC50 [9]: > 59.7 µM (inactive); EC50 [10]: > 59.7 µM (inactive)

Reference: ChEMBL document CHEMBL1201862, “PubChem BioAssay data set” (2004)
